From patent US12103937B2, “Substituted pyridines and pyridazines as TYK2 inhibitors” (Sudo Biosciences Limited, priority 2021, dated 2024)

How the values were obtained:
[1] = tested on: HEK-Blue IFNγ reporter cells, IFNγ-stimulated STAT1 SEAP reporter; experiment: HEK-Blue IFNγ reporter assay (SEAP) for determining selectivity; format: cell-based; conditions: Homo sapiens, 50 ng/mL human recombinant IFNγ, SEAP readout, read-out: IFN-γ (SEAP selectivity, IC50 class)
Experimental: (§1) HEK-Blue™ IL-2 and IFNγ reporter cells with a stably-integrated cytokine receptor and STAT5 or STAT1 express STAT-inducible secreted embryonic alkaline phosphatase (SEAP) reporter gene upon cytokine stimulation. These cells were plated in DMEM (Gibco) containing 10% heat-inactivated FBS (Gibco) and 100 U/mL PenStrep (Gibco) at 37° C. under 5% CO2 conditions for 20-22 hours. The cells were then pretreated with serially diluted test compounds for 60 min prior to stimulation with either 4 ng/mL human recombinant IL-2 (Miltenyl Biotech) or 50 ng/mL human recombinant IFNγ (InvivoGen) for 24 hours. SEAP induction was measured using the QUANTI-Blue™ Solution (InvivoGen) according to the manufacturer's instructions.

[2] = tested on: HEK-Blue IL-2 reporter cells, IL-2-stimulated STAT5 SEAP reporter; experiment: HEK-Blue IL-2 reporter assay (SEAP) for determining selectivity; format: cell-based; conditions: 4 ng/mL human recombinant IL-2, SEAP readout, read-out: IL-2 (SEAP selectivity, IC50 class)
Experimental: as §1

SMILES | IC50 [1] | IC50 [2]
[2H]C([2H])([2H])NC(=O)c1nnc(NC(=O)C2CC2)cc1Nc1nccc2c1N(C)[C@@H](C)c1nc(C)nn1-2 [Compound 112, (S)-6-(cyclopropanecarboxamido)-N-(methyl-d3)-4-((2,4,5-trimethyl-4,5-dihydropyrido[3,4-e][1,2,4]triazolo[1,5-a]pyrazin-6-yl)amino)pyridazine-3-carboxamide] | > 1 µM | > 1 µM
[2H]C([2H])([2H])NC(=O)c1nnc(NC(=O)C2CC2)cc1Nc1nccc2c1N(C)[C@H](C([2H])([2H])[2H])c1nn(C)nc1-2 [Compound 114, (R)-6-(cyclopropanecarboxamido)-4-((2,5-dimethyl-4-(methyl-d3)-4,5-dihydro-2H-[1,2,3]triazolo[4,5-c][1,7]naphthyridin-6-yl)amino)-N-(methyl-d3)pyridazine-3-carboxamide] |  | > 1 µM
[2H]C([2H])([2H])NC(=O)c1nnc(NC(=O)[C@H]2C[C@H]2F)cc1Nc1nccc2c1N(C)Cc1nn(C)nc1-2 [Compound 115, 4-((2,5-dimethyl-4,5-dihydro-2H-[1,2,3]triazolo[4,5-c][1,7]naphthyridin-6-yl)amino)-6-((1R,2R)-2-fluorocyclopropane-1-carboxamido)-N-(methyl-d3)pyridazine-3-carboxamide] | 0.03 to 0.3 µM | 0.3 to 1 µM
